Assay results as given in publication PMC11089506 (Journal of Medicinal Chemistry, 2024).
“Also recorded” adds a separate entry of the source. Counter-ions that a name gives are not always drawn. Like-named read-outs stand apart in the source and are kept apart here.

Columns and labels:
Tachykinin receptor NK2 = target: T1, Tachykinin receptor NK2 (Homo sapiens, UniProt P21452); experiment: radioligand competition binding, [125I]Neurokinin A
T1 construct: Eurofins (contract laboratory)

NET = target: T2, NET (Homo sapiens, UniProt P23975); experiment: radioligand competition binding, [3H]nisoxetine
T2 construct: Eurofins

[1] = target: T3, Neuropeptide Y receptor Y2 (Homo sapiens, UniProt P49146); experiment: radioligand competition binding, [125I]Peptide YY
T3 construct: Eurofins

Melatonin receptor MT1 = target: T4, Melatonin receptor MT1 (Homo sapiens, UniProt P48039); experiment: radioligand competition binding, [125I]2-Iodomelatonin
T4 construct: Eurofins

Opioid receptor κ = target: T5, Opioid receptor κ (Homo sapiens, UniProt P41145); experiment: radioligand competition binding, [3H]Diprenorphine (first line)
T5 construct: Eurofins

human 5-HT2CR = human 5-HT2CR (Homo sapiens, UniProt P28335); experiment: Ca2+/Fluo-4 assay, agonist mode, stable 5-HT2CR-HEK293 cells
[2] = target: T6, D5 (dopaminergic receptor) (Homo sapiens, UniProt P21918); experiment: radioligand competition binding, [3H]SCH 23390; conditions: read-out: % inhibition of the specific radioligand binding
T6 construct: Eurofins

Endothelin receptor ETA = target: T7, Endothelin receptor ETA (Homo sapiens, UniProt P25101); experiment: radioligand competition binding, [125I]Endothelin-1
T7 construct: Eurofins

Adrenergic receptor α1B = target: T8, Adrenergic receptor α1B (Homo sapiens, UniProt P35368); experiment: radioligand competition binding, [3H]Prazosin
T8 construct: Eurofins

NMDA receptor (PCP) = experiment: radioligand competition binding, [3H]TCP; design: species or system rat
M3 (muscarinic receptor) = target: T9, M3 (muscarinic receptor) (Homo sapiens, UniProt P20309); experiment: radioligand competition binding, [3H]4-DAMP
T9 construct: Eurofins

NMDA receptor (Glycine) = target: T10, NMDA receptor (Glycine) (Rattus norvegicus, UniProt P35439); experiment: radioligand competition binding, [3H]MDL 105,519
T10 construct: Eurofins

Purinergic receptor P2Y = experiment: radioligand competition binding, [35S]dATPαS; design: species or system rat
Phosphodiesterase = experiment: radioligand competition binding, [3H]Rolipram; design: species or system rat
[3] = target: T11, Nicotinic acetylcholine receptor (muscle-type) (Homo sapiens, UniProt P02708+P07510+Q07001); experiment: radioligand competition binding, [125I]α-Bungarotoxin
T11 construct: Eurofins

[4] = target: T12, α1A (adrenergic receptor) (Homo sapiens, UniProt P35348); experiment: radioligand competition binding, [3H]Prazosin
T12 construct: Eurofins

5-HT1D = target: T13, 5-HT1D (Rattus norvegicus, UniProt P28565); experiment: radioligand competition binding, [3H]serotonin
T13 construct: Eurofins

Cannabinoid receptor CB1 = target: T14, Cannabinoid receptor CB1 (Homo sapiens, UniProt P21554); experiment: radioligand competition binding, [3H]SR141716A
T14 construct: Eurofins

5-HT3 = target: T15, 5-HT3 (Homo sapiens, UniProt P46098); experiment: radioligand competition binding, [3H]BRL 43694; conditions: read-out: % inhibition of the specific radioligand binding
T15 construct: Eurofins

[5] = LogP / log D determination, 1-octanol/phosphate buffer; format: physicochemical
Experimental: LogP Log D log D log D log D log D log D log D
Phosphate buffer (PB) with the pH ranging from 1.8 to 12.0 and Octanol saturated with water was used. 2 μL of 10 mM DMSO stock solution of test and control compounds was aliquoted into tubes in duplicate. Added 149 μL of PB (pH 1.8, 2.5, 4.5, 7.4, 9.5,11.0 and 12.0)-Saturated […]
was added, respectively. Each of the tubes was vigorously mixed for 2 minutes and then shook for 1 hour at a speed of 800 rpm at room temperature. Following centrifugation at 4000 rpm for 5 minutes at room temperature, appropriate volume of buffer layer samples and 1-octanol layer samples was aliquoted. These samples were diluted and detected by using LC -MS/MS method without running a calibration curve.
The log D values were calculated with the following equation:
(also on this page, place not known: temperature , 1 -octanol Log Doctanol/buffer = log( Mean Octanol Layer Peak Area Ratio ∗ Octanol Layer Dilution Factor Mean Buffer Layer Peak Area Ratio ∗ Buffer Layer Dilution Factor) […]
(1 picture or pasted object on this page, not shown here)

[6] = target: T16, D3 (dopaminergic receptor) (Homo sapiens, UniProt P35462); experiment: radioligand competition binding, [3H]methyl-spiperone; conditions: read-out: % inhibition of the specific radioligand binding
T16 construct: Eurofins

5-HT5a = target: T17, 5-HT5a (Homo sapiens, UniProt P47898); experiment: radioligand competition binding, [3H]LSD; conditions: read-out: % inhibition of the specific radioligand binding
T17 construct: Eurofins

[7] = target: T18, α1D (adrenergic receptor) (Homo sapiens, UniProt P25100); experiment: radioligand competition binding, [3H]Prazosin
T18 construct: Eurofins

[8] = estimated from the % inhibition data
[9] = read-out: % inhibition of the specific radioligand binding

SMILES: COc1cc(C(F)(F)F)c(OC)cc1[C@@H]1CCCNC1 [(S)-11, 3-(2,5-Dimethoxy-4-(trifluoromethyl)phenyl)piperidine Hydrochloride]
- IC50 (Tachykinin receptor NK2; [8]): > 10 µM
- inhibition at 10 µM (Tachykinin receptor NK2; [9]): 1%
- IC50 (NET; [8]): > 10 µM
- inhibition at 10 µM (NET; [9]): -4%
- IC50 [1, 8]: > 10 µM
- inhibition at 10 µM [1, 9]: 3%
- IC50 (Melatonin receptor MT1; [8]): > 10 µM
- inhibition at 10 µM (Melatonin receptor MT1; [9]): 7%
- IC50 (Opioid receptor κ; [8]): > 10 µM
- inhibition at 10 µM (Opioid receptor κ; [9]): 18%
- agonist activity at 5-HT2CR (in words) (human 5-HT2CR): negligible agonist efficacy; also recorded: absence of measurable agonist efficacy
- EC50 (human 5-HT2CR; 5-HT2CR EC50 (nM), Table 1, at least 3 independent experiments): > 50000 nM
- agonist activity at 5-HT2CR (in words) (human 5-HT2CR; listed as 11eu): did not elicit measurable agonist activity
- inhibition at 10 µM [2]: 26%
- IC50 (Endothelin receptor ETA; [8]): > 10 µM
- inhibition at 10 µM (Endothelin receptor ETA; [9]): 12%
- IC50 (Adrenergic receptor α1B; [8]): > 10 µM
- inhibition at 10 µM (Adrenergic receptor α1B; [9]): 33%
- % inhibition of the specific radioligand binding (NMDA receptor (PCP); (S)-11 10 μM, n=1): 4%
- IC50 (NMDA receptor (PCP); [8]): > 10 µM
- IC50 (M3 (muscarinic receptor); [8]): ~1 µM
- inhibition at 1 µM (M3 (muscarinic receptor); [9]): 41%
- inhibition at 10 µM (M3 (muscarinic receptor); [9]): 90%
- IC50 (NMDA receptor (Glycine); [8]): > 10 µM
- inhibition at 10 µM (NMDA receptor (Glycine); [9]): -20%
- % inhibition of the specific radioligand binding (Purinergic receptor P2Y; (S)-11 10 μM, n=1): 2%
- IC50 (Purinergic receptor P2Y; [8]): > 10 µM
- % inhibition of the specific radioligand binding (Phosphodiesterase; (S)-11 10 μM, n=1): 8%
- IC50 (Phosphodiesterase; [8]): > 10 µM
- IC50 [3]: > 10 µM
- inhibition at 10 µM [3, 9]: 3%
- IC50 [4, 8]: > 10 µM
- inhibition at 10 µM [4, 9]: 32%
- IC50 (5-HT1D; [8]): 0.1 to 1 µM
- inhibition at 0.1 µM (5-HT1D; [9]): 18%
- inhibition at 1 µM (5-HT1D; [9]): 64%
- inhibition at 10 µM (5-HT1D; [9]): 93%
- IC50 (Cannabinoid receptor CB1; [8]): > 10 µM
- inhibition at 10 µM (Cannabinoid receptor CB1; [9]): 14%
- inhibition at 10 µM (5-HT3): 6%
- logP at 1 h ([5]; main text and Figure 6): 3.45
- logD ([5]; pH 1.8, read-out: Log D (pH 1.8)): -0.815
- logD ([5]; pH 2.5, read-out: log D (pH2.5)): -0.536
- logD ([5]; pH 4.5, read-out: log D (pH4.5)): -0.376
- logD ([5]; pH 7.4, read-out: log D (pH7.4)): 0.659
- logD ([5]; pH 9.5, read-out: log D (pH9.5)): 1.99
- logD ([5]; pH 11.0, read-out: log D (pH11.0)): 3.4
- logD ([5]; pH 12.0, read-out: log D (pH12.0)): 3.5
- inhibition at 10 µM [6]: 40%
- inhibition at 10 µM (5-HT5a): 4%
- IC50 [7, 8]: > 10 µM
- inhibition at 10 µM [7, 9]: 27%
